Assays:
Assay type in all cases: cell-based, human
mononuclear cells = test: RAR antagonist treatment of mononuclear cell fraction cultures; conditions: Cytokines + RAR antagonist 10^−6 M; for % CD34/Lin^−: reselected CD34+ fraction
Protocol: Human blood cells were obtained from umbilical cord blood from female patients following full-term, normal delivery (informed consent was obtained). Samples were collected and processed within 12 hours postpartum. Blood was mixed with 3% Gelatin (Sigma, St. Louis, Mo.), sedimented for 30 minutes to remove most red blood cells. The leukocyte-rich fraction was harvested and layered on a Ficoll-Hypaque gradient (1.077 gram/ml; Sigma), and centrifuged at 400 g for 30 minutes. The mononuclear cell fraction in the interface layer was collected, washed three times and resuspended in phosphate-buffered saline (PBS) solution (Biological Industries) containing 0.5% bovine serum albumin (BSA, Fraction V; Sigma).
Alternatively, whole mononuclear fraction cells (MNC) were isolated, cultured and supplemented with cytokines, as above.
CD34^+ purified and whole MNC cultures were prepared and maintained as described above. AGN 194310 RAR antagonist was added to test cultures at concentrations ranging from […] [or 410 μg/l to 4.1×10^−5 μg/l]. The antagonist was added for a predetermined, limited period, for up to three weeks or continuously during the entire culture period.
CD34 surface expression on short and long-term cultures initiated either with purified CD34^+ cells or the entire MNC fraction was determined as follows: CD34^+ cells were positively reselected (Miltenyi kit) and counted. Purity was confirmed by subsequent FACS and cell morphology analysis.
Reselected CD34^+ cell subsets were stained for the following combination of antigens: CD34PE/CD38FITC and CD34PE/38, 33, 14, 15, 3, 4, 61, 19 (Lin) FITC. The fraction positive for CD34 and negative for CD38 was defined as CD34^+CD38^−. The fraction positive for CD34 and negative for LIN was defined as CD34^+Lin^− cell fraction.

HL-60 cells = test: Copper determination in chelator treated cells (atomic absorption)
Protocol: Copper Determination: Cells were harvested by centrifugation at 1000×g for 5 minutes. The cell pellet was washed three times by re-suspending the cells in PBS (Ca^++ and Mg^++ free) and centrifugation at 1000×g. An aliquot containing 2×10^6 cells was then transferred into a metal-free Eppendorf tube and the cells were recovered by centrifugation at 1000×g. The cell pellet was re-suspended in 0.03 M ultra-pure nitric acid to give a concentration of 1×10^7 cells/ml. The cells were homogenized with a high shear mixer (polytron, Kinematica, Switzerland) for 1 minutes to disrupt the cell and release intracellular copper content. Cell samples were vortexed before transferring to a vial autosampler and analyzed in duplicate by a Perkin Elmer graphite furnace atomic absorption spectrophotometer at a wavelength of 324.7 nm. The samples were analyzed against copper standard solution prepared from a commercial stock solution that was diluted with 0.03 M ultra pure nitric acid.
FIG. 44 provides the chemical structure of the various chelators employed in these experiments.

CD34 cells = test: Transition metal chelators in CD34+ cell liquid cultures (cell number, CD34 cells, clonability); conditions: for Cells/ml (×10^4): FL, SCF, IL-6 50 ng/ml; for CFU expansion (fold): CFU day 7 / CFU day 0
[1] = TEPA 10 μM, without IL-3, day 7

## CCc1ccc(C2=CC(C)(C)Sc3ccc(C#Cc4ccc(C(=O)O)cc4)cc32)cc1 [AGN 194310]
Mononuclear cells; 2 weeks
  No of CD34^+/Lin^− × 10^4 (cumulative value): 132.5 × 10^4
  No of CD34 cells × 10^4 (cumulative value): 169 × 10^4
  % CD34/Lin^−: 78%
Mononuclear cells; 5 weeks
  No of CD34^+/Lin^− × 10^4 (cumulative value): 237.8 × 10^4
  No of CD34 cells × 10^4 (cumulative value): 985 × 10^4
  % CD34/Lin^−: 24%

## NCCNCCNCCNCCN [TEPA, tetraethylenepentamine]
HL-60 cells; 20 μM chelator
  Average Intracellular ppb Cu: 31.5 ppb
HL-60 cells; 100 μM chelator
  Average Intracellular ppb Cu: 24.1 ppb
HL-60 cells; 500 μM chelator
  Average Intracellular ppb Cu: 17.1 ppb
HL-60 cells; Homo sapiens, HL-60, 20 μM chelator, read-out: Average Intracellular Cu (% of control)
  activity at 20 µM: 64%
HL-60 cells; Homo sapiens, HL-60, 100 μM chelator, read-out: Average Intracellular Cu (% of control)
  activity at 100 µM: 49%
HL-60 cells; Homo sapiens, HL-60, 500 μM chelator, read-out: Average Intracellular Cu (% of control)
  activity at 500 µM: 35%
CD34 cells
  effect on differentiation of CD34+ cells: inhibit differentiation
CD34 cells; TEPA 10 μM, with IL-3 20 ng/ml, day 7
  Cells/ml (×10^4): 11 ×10^4
CD34 cells; [1]
  Cells/ml (×10^4): 2 ×10^4
  CD34 cells (%): 11.5%
  Colonies (Per 1 × 10^3 initiating cells): 140
CD34 cells; TEPA 10 μM, with IL-3, day 7
  CD34 cells (%): 20%
  Colonies (Per 1 × 10^3 initiating cells): 850
CD34 cells; TEPA 10 μM, with IL-3
  CFU expansion (fold): 17 fold
CD34 cells; TEPA 10 μM, without IL-3
  CFU expansion (fold): 2.8 fold
CD34 cells; after 6 weeks
  CFUc expansion: 120 fold
CD34 cells; after 6 weeks, started with 2.5×10^3 CFUc
  CFUc content of cultures: 300×10^3 CFUc
CD34 cells; early-acting cytokines, no stromal cells, TEPA 10 μM
  time long-term CD34 cultures could be maintained: > 6 weeks
CD34 cells; long term cultures with early cytokines
  cell proliferation and CFUc expansion in long-term CD34 cultures: more effective than the short-chain polyamines
CD34 cells; polyamine chelating agents, long-term CD34 cultures (FIGS. 39a-b)
  concentration with optimal activity: 40 µM
CD34 cells; transition metal chelating agents, long-term CD34 cultures (FIGS. 40a-b)
  concentration with optimal activity: 10 µM

Reference: US20050054103A1, “Expansion of renewable stem cell populations using modulators of PI 3-kinase” (priority 2003, published 2005)
